Literature values as cited in patent publication US20150306111A1 (priority 2012, published 2015).
“Also recorded” adds a separate entry of the source. Read-outs that look alike come from different tables or passages of the source.

What was measured:
[1] = test system: asthma patients with seasonal allergic rhinitis and nasal congestion; settings: daily dose of 5 mg, 331 patients

Clc1ccc2c(c1)CCc1cccnc1C2=C1CCNCC1 [desloratadine]
Solubility in ethyl alcohol (ethyl alcohol): very soluble in ethyl alcohol | Solubility in propylene glycol (propylene glycol): moderately soluble in propylene glycol | Solubility in water: practically insoluble in water; also recorded: low solubility in water | Solubility in water (listed as Desloratadine): poorly soluble in water | Effect on symptoms compared with placebo [1]: effective in reducing overall symptoms, the symptoms of asthma and the symptoms of nasal congestion
